{"source": "ChEMBL document CHEMBL2331460", "about": "“Glycosidic carbonic anhydrase IX inhibitors: a sweet approach against cancer” (Bioorg Med Chem, 2013)", "key": {"Carbonic anhydrase 9": {"target": "Carbonic anhydrase 9 (Homo sapiens, UniProt Q16790)", "assay": "Inhibition of human carbonic anhydrase 9 preincubated for 15 mins by CO2 hydration stopped-flow assay"}, "Homo sapiens [1]": {"organism": "Homo sapiens", "assay": "Selectivity ratio of Ki for human carbonic anhydrase 2 to Ki for human carbonic anhydrase 9"}, "Carbonic anhydrase 2": {"target": "Carbonic anhydrase 2 (Homo sapiens, UniProt P00918)", "assay": "Inhibition of human carbonic anhydrase 2 preincubated for 15 mins by CO2 hydration stopped-flow assay"}, "Homo sapiens [2]": {"organism": "Homo sapiens", "assay": "Selectivity ratio of Ki for human carbonic anhydrase 1 to Ki for human carbonic anhydrase 9"}}, "data": [{"smiles": "C[C@@H]1O[C@@H](NS(N)(=O)=O)[C@@H](O)[C@H](O)[C@H]1O", "values": [{"measurement": "Ki", "setting": "Carbonic anhydrase 9", "value": 900, "unit": "nM"}, {"measurement": "Ratio Ki", "setting": "Homo sapiens [1]", "value": 7}]}, {"smiles": "NS(=O)(=O)OC[C@H]1O[C@H](OC[C@H]2[C@H](O)[C@@H](O)[C@H](O)O[C@@H]2CO)[C@H](O)[C@@H](O)[C@@H]1O", "values": [{"measurement": "Ki", "setting": "Carbonic anhydrase 2", "value": 11.3, "unit": "nM"}]}, {"smiles": "CC(=O)OC[C@H]1O[C@@H](NS(N)(=O)=O)[C@H](OC(C)=O)[C@@H](OC(C)=O)[C@H]1OC(C)=O", "values": [{"measurement": "Ki", "setting": "Carbonic anhydrase 9", "value": 5, "unit": "nM"}, {"measurement": "Ratio Ki", "setting": "Homo sapiens [2]", "value": 480}, {"measurement": "Ratio Ki", "setting": "Homo sapiens [1]", "value": "< 17"}]}, {"smiles": "CC(=O)OC[C@H]1O[C@@H](NS(N)(=O)=O)[C@H](OC(C)=O)[C@@H](OC(C)=O)[C@@H]1OC(C)=O", "values": [{"measurement": "Ki", "setting": "Carbonic anhydrase 9", "value": 5, "unit": "nM"}, {"measurement": "Ratio Ki", "setting": "Homo sapiens [2]", "value": 480}, {"measurement": "Ratio Ki", "setting": "Homo sapiens [1]", "value": "< 17"}]}, {"smiles": "CC(=O)OC[C@H]1O[C@H](NS(N)(=O)=O)C=C[C@@H]1OC(C)=O", "values": [{"measurement": "Ki", "setting": "Carbonic anhydrase 9", "value": 9, "unit": "nM"}]}, {"smiles": "CC(=O)OC[C@H]1O[C@@H](NS(N)(=O)=O)[C@@H](OC(C)=O)[C@@H](OC(C)=O)[C@@H]1OC(C)=O", "values": [{"measurement": "Ratio Ki", "setting": "Homo sapiens [2]", "value": 480}, {"measurement": "Ratio Ki", "setting": "Homo sapiens [1]", "value": "< 17"}]}]}
